From ChEMBL document CHEMBL3817836, “One small molecule as a theranostic agent: naphthalimide dye for subcellular fluorescence localization and photodynamic therapy in vivo” (Medchemcomm, 2016)
The source made the active and inactive calls. No cut-off for these calls is given here.

What was measured:
A-375 [1] = assay: Induction of apoptosis in human A375 cells exposed to 28.8 J/cm2 laser irradiation assessed as increase in PARP cleavage by western blot analysis; type: functional, cell-based; details: TDE = time-dependent effect
Mus musculus [2] = assay: Toxicity in nude mouse xenografted with human A375 cells exposed to 28.8 J/cm2 laser irradiation assessed as change in body weight at 5 mg/kg administered twice a week measured after 21 days; type: organism-based, A-375; details: in vivo, 504 h
Mus musculus [3] = assay: Toxicity in nude mouse xenografted with human A375 cells assessed as tissue lesions at 5 mg/kg by hematoxylin-eosin staining method; type: organism-based, A-375; details: in vivo
A-375 [4] = assay: Photo-cytotoxicity against human A375 cells assessed as induction of cell death incubated for 48 hrs followed by 28.8 J/cm2 laser irradiation dose 20 mins by MTT assay; type: functional, cell-based
MKN-45 = assay: Photo-cytotoxicity against human MKN45 cells assessed as induction of cell death incubated for 48 hrs followed by 28.8 J/cm2 laser irradiation dose 20 mins by MTT assay; type: functional, cell-based
Mus musculus [5] = assay: Toxicity in nude mouse xenografted with human A375 cells exposed to 28.8 J/cm2 laser irradiation assessed as tissue lesions at 5 mg/kg by hematoxylin-eosin staining method; type: organism-based, A-375; details: in vivo
A-375 [6] = assay: Induction of apoptosis in human A375 cells exposed to 28.8 J/cm2 laser irradiation assessed as increase in caspase3 cleavage by western blot analysis; type: functional, cell-based; details: TDE = time-dependent effect
A-375 [7] = assay: Induction apoptosis in human A375 cells xenografted into nude mouse exposed to 28.8 J/cm2 laser irradiation at 5 mg/kg administered twice week measured after 21 days by TUNEL assay; type: functional, organism-based
A-375 [8] = assay: Antitumor activity against human A375 cells xenografted in nude mouse exposed to 28.8 J/cm2 laser irradiation assessed as tumor size at 5 mg/kg administered twice week measured after 21 days (reference value: 4.31 +/- 0.38); type: functional
HCT-116 = assay: Photo-cytotoxicity against human HCT116 cells assessed as induction of cell death incubated for 48 hrs followed by 28.8 J/cm2 laser irradiation dose 20 mins by MTT assay; type: functional, cell-based
A-375 [9] = assay: Antitumor activity against human A375 cells xenografted in nude mouse assessed as tumor size at 5 mg/kg administered twice week measured after 21 days (reference value: 4.31 +/- 0.38); type: functional
A-375 [10] = assay: Induction of apoptosis in human A375 cells exposed to 28.8 J/cm2 laser irradiation assessed as increase in intracellular ROS using DCFH-DA after 4 hrs by spectrofluorimetric method; type: functional, cell-based
A-375 [11] = assay: Induction apoptosis in human A375 cells xenografted into nude mouse at 5 mg/kg administered twice week measured after 21 days by TUNEL assay; type: functional, organism-based
A-375 [12] = assay: Induction of apoptosis in human A375 cells exposed to 28.8 J/cm2 laser irradiation assessed as nuclear condensation measured after 12 hrs by TUNEL assay; type: functional, cell-based
A-375 [13] = assay: Induction of apoptosis in human A375 cells exposed to 28.8 J/cm2 laser irradiation assessed as nuclear fragmentation measured after 12 hrs by TUNEL assay; type: functional, cell-based
MCF7 [14] = assay: Photo-cytotoxicity against human MCF7 cells assessed as reduction in cell viability incubated for 48 hrs followed by 28.8 J/cm2 laser irradiation for 20 mins by MTT assay; type: functional, cell-based; details: MCF7, light or radiation study
[15] = Cellular uptake in lysosome of human […] cells at 2.5 uM incubated for 48 hrs followed by 28.8 J/cm2 laser irradiation for 20 mins by lysosome Red dye based confocal microscopy; type: ADME, cell-based
[16] = Toxicity against human MCF7 cells assessed as reduction in cell viability measured after 48 hrs by MTT assay; type: cell-based
A-375 [17] = assay: Induction apoptosis in human A375 cells xenografted into nude mouse exposed to 28.8 J/cm2 laser irradiation assessed as increase in cleaved capase-3 level at 5 mg/kg administered twice week measured after 21 days by immunohistochemistry assay; type: functional, organism-based
[18] = Cellular uptake in mitochondria of human […] cells at 2.5 uM incubated for 48 hrs followed by 28.8 J/cm2 laser irradiation for 20 mins by Mitotracker Red dye based confocal microscopy; type: ADME
A-375 [19] = assay: Cellular uptake in human A375 cells at 2.5 uM incubated for 48 hrs followed by 28.8 J/cm2 laser irradiation for 20 mins by fluorescence microscopic imaging method; type: ADME, cell-based; details: a-375, 48 h
A-375 [20] = assay: Induction of apoptosis in human A375 cells exposed to 28.8 J/cm2 laser irradiation assessed as increase in intracellular ROS using DCFH-DA after 12 hrs by spectrofluorimetric method; type: functional, cell-based
Mus musculus [21] = assay: Toxicity in nude mouse xenografted with human A375 cells assessed as change in body weight at 5 mg/kg administered twice a week measured after 21 days; type: organism-based, A-375; details: in vivo, 504 h
[22] = Cellular uptake in endoplasmic reticulum of human […] cells at 2.5 uM incubated for 48 hrs followed by 28.8 J/cm2 laser irradiation for 20 mins by ER tracker Red dye based confocal microscopy; type: ADME, cell-based
MCF7 [23] = assay: Photo-cytotoxicity against human MCF7 cells assessed as induction of cell death incubated for 48 hrs followed by 28.8 J/cm2 laser irradiation dose 20 mins by MTT assay; type: functional, cell-based
[24] = Cellular uptake in nucleus of human […] cells at 2.5 uM incubated for 48 hrs followed by 28.8 J/cm2 laser irradiation for 20 mins by DAPI dye based confocal microscopy; type: ADME, cell-based
A-375 [25] = assay: Induction of apoptosis in human A375 cells exposed to 28.8 J/cm2 laser irradiation assessed as apoptotic bodies measured after 12 hrs by TUNEL assay; type: functional, cell-based

SMILES: O=c1c2ccc3sc4ccc(Br)cc4c4ccc(c(=O)n1CCOCCO)c2c34
- Activity (A-375 [1]): tde
- Activity (Mus musculus [2]): Non-toxic
- Activity (Mus musculus [3]): Toxic
- Activity (A-375 [4]): Dose-dependent effect
- Activity (MKN-45): Dose-dependent effect
- Activity (Mus musculus [5]): Toxic
- Activity (A-375 [6]): tde
- Activity (A-375 [7]): Active
- fold change (FC) (A-375 [8]): 0.5
- Activity (HCT-116): Dose-dependent effect
- fold change (FC) (A-375 [9]): 3
- Activity (A-375 [10]): Active
- Activity (A-375 [11]): inactive
- Activity (A-375 [12]): Active
- Activity (A-375 [13]): Active
- IC50 (MCF7 [14]): 2.65 µM
- Drug uptake [15]: Not Active
- IC50 at 48 h [16]: > 50 µM
- Activity (A-375 [17]): Active
- Drug uptake [18]: Active
- Drug uptake (A-375 [19]): Active
- Activity (A-375 [20]): inactive
- Activity (Mus musculus [21]): Non-toxic
- Drug uptake [22]: Not Active
- Activity (MCF7 [23]): Dose-dependent effect
- Drug uptake [24]: Not Active
- Activity (A-375 [25]): Active

SMILES: O=C1c2cccc3c2c(cc2c4cc(Br)ccc4sc32)C(=O)N1CCOCCO
- IC50 (MCF7 [14]): 18.5 µM
- IC50 at 48 h [16]: > 50 µM

SMILES: O=C1c2cccc3c2c(cc2c4ccccc4sc32)C(=O)N1CCOCCO
- IC50 (MCF7 [14]): 11.4 µM
- IC50 at 48 h [16]: 18.8 µM

SMILES: O=c1c2ccc3sc4ccccc4c4ccc(c(=O)n1CCOCCO)c2c34
- IC50 (MCF7 [14]): 1.4 µM
- IC50 at 48 h [16]: 18.2 µM
